The molecules below were run on PC3 cells (assay: NAMPT Cell Proliferation Assay). Conditions: Homo sapiens, PC-3, 120 h, 5 days incubation, cell viability by Cell Titer Glo.
Format: cell-based
Procedure, shortened: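 Seeded at 500 cells/well in RPMI with 10% heat-inactivated FBS and left to attach overnight at 37° C, 5% CO2. Compounds were added as 10-fold dilutions […] for 5 days, then viability was read by CellTiter-Glo. IC50s came from sigmoidal fits of percent inhibition.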

Row | IC50 [nM] | Compound
1 | 65.5 | Cc1ncccc1N1CC(C(=O)Nc2ccc(C3CCN(C(=O)C4(C)CC4)CC3)cc2)C1 [Example 170, N-(4-{1-[(1-methylcyclopropyl)carbonyl]piperidin-4-yl}phenyl)-1-(2-methylpyridin-3-yl)azetidine-3-carboxamide]
2 | 68.1 | Cc1ccsc1C(=O)N1CCC(c2ccc(NC(=O)C3CN(c4cccnc4C)C3)cc2)CC1 [Example 171, 1-(2-methylpyridin-3-yl)-N-(4-{1-[(3-methylthiophen-2-yl)carbonyl]piperidin-4-yl}phenyl)azetidine-3-carboxamide]
3 | 329 | Cc1ncccc1N1CC(C(=O)Nc2ccc(C3CCN(C(=O)CCC(F)(F)F)CC3)cc2)C1 [Example 172, 1-(2-methylpyridin-3-yl)-N-{4-[1-(4,4,4-trifluorobutanoyl)piperidin-4-yl]phenyl}azetidine-3-carboxamide]
4 | 627 | Cc1ncccc1N1CC(C(=O)Nc2ccc(C3CCN(C(=O)CN4CCN(C)CC4)CC3)cc2)C1 [Example 173, N-(4-{1-[(4-methylpiperazin-1-yl)acetyl]piperidin-4-yl}phenyl)-1-(2-methylpyridin-3-yl)azetidine-3-carboxamide]
5 | 1130 | Cc1ncccc1N1CC(C(=O)Nc2ccc(C3CCN(C(=O)[C@@H]4CCC(=O)N4)CC3)cc2)C1 [Example 174, 1-(2-methylpyridin-3-yl)-N-{4-[1-(5-oxo-L-prolyl)piperidin-4-yl]phenyl}azetidine-3-carboxamide]
6 | 683 | CCOCCC(=O)N1CCC(c2ccc(NC(=O)C3CN(c4cccnc4C)C3)cc2)CC1 [Example 175, N-{4-[1-(3-ethoxypropanoyl)piperidin-4-yl]phenyl}-1-(2-methylpyridin-3-yl)azetidine-3-carboxamide]
7 | 218 | Cc1ncccc1N1CC(C(=O)Nc2ccc(C3CCN(C(=O)CCC(C)C)CC3)cc2)C1 [Example 176, N-{4-[1-(4-methylpentanoyl)piperidin-4-yl]phenyl}-1-(2-methylpyridin-3-yl)azetidine-3-carboxamide]
8 | 107 | Cc1ncccc1N1CC(C(=O)Nc2ccc(C3CCN(C(=O)C4(C)CCCCC4)CC3)cc2)C1 [Example 177, N-(4-{1-[(1-methylcyclohexyl)carbonyl]piperidin-4-yl}phenyl)-1-(2-methylpyridin-3-yl)azetidine-3-carboxamide]
9 | 300 | CC(=O)N1CCC(c2ccc(NC(=O)C3CN(c4cccnc4C)C3)cc2)CC1 [Example 178, N-[4-(1-acetylpiperidin-4-yl)phenyl]-1-(2-methylpyridin-3-yl)azetidine-3-carboxamide]
10 | 192 | Cc1ncccc1N1CC(C(=O)Nc2ccc(C3CCN(C(=O)CC4CCCCC4)CC3)cc2)C1 [Example 179, N-{4-[1-(cyclohexylacetyl)piperidin-4-yl]phenyl}-1-(2-methylpyridin-3-yl)azetidine-3-carboxamide]
11 | 164 | CC(=O)N[C@@H](CC(C)C)C(=O)N1CCC(c2ccc(NC(=O)C3CN(c4cccnc4C)C3)cc2)CC1 [Example 180, N-{4-[1-(N-acetyl-L-leucyl)piperidin-4-yl]phenyl}-1-(2-methylpyridin-3-yl)azetidine-3-carboxamide]
12 | 238 | CCC(=O)N1CCC(c2ccc(NC(=O)C3CN(c4cccnc4C)C3)cc2)CC1 [Example 181, 1-(2-methylpyridin-3-yl)-N-[4-(1-propanoylpiperidin-4-yl)phenyl]azetidine-3-carboxamide]
13 | 87.9 | Cc1ncccc1N1CC(C(=O)Nc2ccc(C3CCN(C(=O)CC(F)(F)F)CC3)cc2)C1 [Example 182, 1-(2-methylpyridin-3-yl)-N-{4-[1-(3,3,3-trifluoropropanoyl)piperidin-4-yl]phenyl}azetidine-3-carboxamide]
14 | 346 | COCCOCC(=O)N1CCC(c2ccc(NC(=O)C3CN(c4cccnc4C)C3)cc2)CC1 [Example 183, N-(4-{1-[(2-methoxyethoxy)acetyl]piperidin-4-yl}phenyl)-1-(2-methylpyridin-3-yl)azetidine-3-carboxamide]
15 | 604 | Cc1ncccc1N1CC(C(=O)Nc2ccc(C3CCN(C(=O)CCN4CCOCC4)CC3)cc2)C1 [Example 184, 1-(2-methylpyridin-3-yl)-N-(4-{1-[3-(morpholin-4-yl)propanoyl]piperidin-4-yl}phenyl)azetidine-3-carboxamide]
16 | 74.2 | Cc1ncccc1N1CC(C(=O)Nc2ccc(C3CCN(C(=O)C(C)(C)C)CC3)cc2)C1 [Example 185, N-{4-[1-(2,2-dimethylpropanoyl)piperidin-4-yl]phenyl}-1-(2-methylpyridin-3-yl)azetidine-3-carboxamide]
17 | 627 | Cc1ccc(C(=O)N2CCC(c3ccc(NC(=O)C4CN(c5cccnc5C)C4)cc3)CC2)s1 [Example 186, 1-(2-methylpyridin-3-yl)-N-(4-{1-[(5-methylthiophen-2-yl)carbonyl]piperidin-4-yl}phenyl)azetidine-3-carboxamide]
18 | 20.6 | Cc1ncccc1N1CC(C(=O)Nc2ccc(C3CCN(C(=O)c4cccs4)CC3)cc2)C1 [Example 187, 1-(2-methylpyridin-3-yl)-N-{4-[1-(thiophen-2-ylcarbonyl)piperidin-4-yl]phenyl}azetidine-3-carboxamide]

Row | IC50 [nM] | Compound
19 | 22.4 | Cc1ncccc1N1CC(C(=O)Nc2ccc(C3CCN(C(=O)c4cccn4C)CC3)cc2)C1 [Example 188, 1-(2-methylpyridin-3-yl)-N-(4-{1-[(1-methyl-1H-pyrrol-2-yl)carbonyl]piperidin-4-yl}phenyl)azetidine-3-carboxamide]
20 | 14.6 | Cc1ncccc1N1CC(C(=O)Nc2ccc(C3CCN(C(=O)c4ccco4)CC3)cc2)C1 [Example 189, N-{4-[1-(furan-2-ylcarbonyl)piperidin-4-yl]phenyl}-1-(2-methylpyridin-3-yl)azetidine-3-carboxamide]
21 | 694 | Cc1ncccc1N1CC(C(=O)Nc2ccc(C3CCN(C(=O)CCN4CCCCC4)CC3)cc2)C1 [Example 190, 1-(2-methylpyridin-3-yl)-N-(4-{1-[3-(piperidin-1-yl)propanoyl]piperidin-4-yl}phenyl)azetidine-3-carboxamide]
22 | 677 | CCOCC(=O)N1CCC(c2ccc(NC(=O)C3CN(c4cccnc4C)C3)cc2)CC1 [Example 191, N-{4-[1-(ethoxyacetyl)piperidin-4-yl]phenyl}-1-(2-methylpyridin-3-yl)azetidine-3-carboxamide]
23 | 69.3 | Cc1ncccc1N1CC(C(=O)Nc2ccc(C3CCN(C(=O)CC(C)(C)C)CC3)cc2)C1 [Example 192, N-{4-[1-(3,3-dimethylbutanoyl)piperidin-4-yl]phenyl}-1-(2-methylpyridin-3-yl)azetidine-3-carboxamide]
24 | 71 | CCC(C)(C)C(=O)N1CCC(c2ccc(NC(=O)C3CN(c4cccnc4C)C3)cc2)CC1 [Example 193, N-{4-[1-(2,2-dimethylbutanoyl)piperidin-4-yl]phenyl}-1-(2-methylpyridin-3-yl)azetidine-3-carboxamide]
25 | 124 | CCCC(=O)N1CCC(c2ccc(NC(=O)C3CN(c4cccnc4C)C3)cc2)CC1 [Example 194, N-[4-(1-butanoylpiperidin-4-yl)phenyl]-1-(2-methylpyridin-3-yl)azetidine-3-carboxamide]
26 | 701 | COCC(=O)N1CCC(c2ccc(NC(=O)C3CN(c4cccnc4C)C3)cc2)CC1 [Example 195, N-{4-[1-(methoxyacetyl)piperidin-4-yl]phenyl}-1-(2-methylpyridin-3-yl)azetidine-3-carboxamide]
27 | 111 | Cc1ncccc1N1CC(C(=O)Nc2ccc(C3CCN(C(=O)C4CCCCC4)CC3)cc2)C1 [Example 196, N-{4-[1-(cyclohexylcarbonyl)piperidin-4-yl]phenyl}-1-(2-methylpyridin-3-yl)azetidine-3-carboxamide]
28 | 103 | Cc1ncccc1N1CC(C(=O)Nc2ccc(C3CCN(C(=O)CC(C)C)CC3)cc2)C1 [Example 197, N-{4-[1-(3-methylbutanoyl)piperidin-4-yl]phenyl}-1-(2-methylpyridin-3-yl)azetidine-3-carboxamide]
29 | 71.6 | Cc1ncccc1N1CC(C(=O)Nc2ccc(C3CCN(C(=O)C(C)C(C)C)CC3)cc2)C1 (centres unmarked) [Example 198, N-{4-[1-(2,3-dimethylbutanoyl)piperidin-4-yl]phenyl}-1-(2-methylpyridin-3-yl)azetidine-3-carboxamide]
30 | 97.4 | O=C(Nc1ccc(OC2CN(C(=O)c3ccc(F)cc3)C2)cc1)C1CN(c2ccnnc2)C1 [Example 199, N-(4-{[1-(4-fluorobenzoyl)azetidin-3-yl]oxy}phenyl)-1-(pyridazin-4-yl)azetidine-3-carboxamide]
31 | 71.9 | O=C(Nc1ccc(OC2CN(C(=O)c3ccc(F)cc3F)C2)cc1)C1CN(c2ccnnc2)C1 [Example 200, N-(4-{[1-(2,4-difluorobenzoyl)azetidin-3-yl]oxy}phenyl)-1-(pyridazin-4-yl)azetidine-3-carboxamide]
32 | 60.9 | O=C(Nc1ccc(OC2CN(C(=O)C(F)(F)c3ccccc3)C2)cc1)C1CN(c2ccnnc2)C1 [Example 201, N-[4-({1-[difluoro(phenyl)acetyl]azetidin-3-yl}oxy)phenyl]-1-(pyridazin-4-yl)azetidine-3-carboxamide]
33 | 168 | O=C(Nc1ccc(OC2CN(C(=O)C3CCC(F)(F)CC3)C2)cc1)C1CN(c2ccnnc2)C1 [Example 202, N-[4-({1-[(4,4-difluorocyclohexyl)carbonyl]azetidin-3-yl}oxy)phenyl]-1-(pyridazin-4-yl)azetidine-3-carboxamide]
34 | 606 | O=C(Nc1ccc(OC2CN(C(=O)Cc3ccc(F)cc3)C2)cc1)C1CN(c2ccnnc2)C1 [Example 203, N-[4-({1-[(4-fluorophenyl)acetyl]azetidin-3-yl}oxy)phenyl]-1-(pyridazin-4-yl)azetidine-3-carboxamide]
35 | 24.5 | O=C(Nc1ccc(C2CCN(C(=O)CC3CCCC3)CC2)cc1)[C@H]1CCN(c2cccnc2)C1 [Example 204, (3S)—N-{4-[1-(cyclopentylacetyl)piperidin-4-yl]phenyl}-1-(pyridin-3-yl)pyrrolidine-3-carboxamide]

— patent US20130303509A1, “NAMPT INHIBITORS” (AbbVie Inc., priority 2012, published 2013)
